Experimental data from patent US20110135761A1, “ANTIMICROBIAL SUTURE FOR MEDICAL USE WITH GRAPEFRUIT EXTRACT, AND MANUFACTURING METHOD THEREOF” (Korea Institute of Ceramic Engineering and Technology, priority 2009, published 2011).

Format: physicochemical
Excerpt: The short degradation period refers that the biodegradation effect is high; it has advantage that the secondary infection due to the suture is decreased.

poly(glycolide-co-L-lactide) [PGLA suture]
degradation behavior (in words): degradation of the suture was quickly progressed
